In US11155560B2, “Substituted pyrazolo[1,5-a]pyrimidines for modulating CDK9 activity” (Kronos Bio, Inc., priority 2018, dated 2021):

Target: CDK9/cyclin T1 (Homo sapiens, UniProt P50750)
Assay: CDK9/cyclin T1 kinase inhibition, LANCE assay
Assay type: biochemical
Settings: reaction time 60 minutes, 10 μM ATP, 10-dose IC50, compounds 35-126 (127-208 listed, method not stated), read-out: CDK9/cyclin T1 Potency Grade
Procedure: Exemplary compounds of the invention (35-126) were tested for inhibition of CDK9/cyclin T1 kinase. Using a LANCE assay (reaction time 60 minutes), the compounds were tested in 10-dose IC50 duplicate mode with a 3-fold serial dilution starting at 4.3 μM. […] Reactions were carried out at 10 μM ATP. Data was normalized to positive and negative controls and curve fits were analyzed with XLFIT5 as % inhibition vs. log [compound concentration] using a 4-parameter logistic model205. Fit=(A+((B−A)/(1+((C/x)^D)))); Res =(y-fit).

CDK9/cyclin T1, sequence (P50750 whole entry): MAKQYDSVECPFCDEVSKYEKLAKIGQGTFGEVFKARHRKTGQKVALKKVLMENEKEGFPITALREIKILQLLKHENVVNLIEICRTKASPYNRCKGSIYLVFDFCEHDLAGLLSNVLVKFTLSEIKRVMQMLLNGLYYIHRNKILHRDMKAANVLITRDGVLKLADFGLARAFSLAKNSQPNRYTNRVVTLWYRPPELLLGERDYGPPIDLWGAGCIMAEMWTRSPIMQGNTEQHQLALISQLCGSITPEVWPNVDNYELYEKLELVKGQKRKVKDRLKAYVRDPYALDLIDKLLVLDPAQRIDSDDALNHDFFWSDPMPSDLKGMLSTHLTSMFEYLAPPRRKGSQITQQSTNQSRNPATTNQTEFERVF
CDK9/cyclin T1, sequence (O60563 whole entry partner): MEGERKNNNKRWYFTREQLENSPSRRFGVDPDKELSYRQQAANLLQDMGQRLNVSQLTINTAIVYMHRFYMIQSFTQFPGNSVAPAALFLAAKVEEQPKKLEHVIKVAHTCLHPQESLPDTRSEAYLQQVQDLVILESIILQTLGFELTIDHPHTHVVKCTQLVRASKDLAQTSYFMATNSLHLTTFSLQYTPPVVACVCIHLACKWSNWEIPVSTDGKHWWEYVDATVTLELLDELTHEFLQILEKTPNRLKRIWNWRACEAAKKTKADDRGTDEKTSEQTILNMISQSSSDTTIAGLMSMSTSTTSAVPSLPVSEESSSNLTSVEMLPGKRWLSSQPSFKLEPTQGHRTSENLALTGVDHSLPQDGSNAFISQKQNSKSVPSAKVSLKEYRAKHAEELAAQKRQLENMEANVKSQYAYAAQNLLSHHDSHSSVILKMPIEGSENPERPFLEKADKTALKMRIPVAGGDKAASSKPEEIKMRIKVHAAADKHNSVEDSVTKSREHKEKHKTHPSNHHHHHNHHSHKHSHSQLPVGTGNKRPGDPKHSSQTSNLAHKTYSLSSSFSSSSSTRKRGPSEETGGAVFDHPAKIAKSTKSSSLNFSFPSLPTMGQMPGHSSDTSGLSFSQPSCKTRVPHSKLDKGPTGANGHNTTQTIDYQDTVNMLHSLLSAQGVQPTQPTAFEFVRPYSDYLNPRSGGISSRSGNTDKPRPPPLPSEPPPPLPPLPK

Row | Structure (SMILES) | IC50
1 | CC(C)(C#N)c1ccc(-c2cc(N[C@H]3CC[C@H](N)C3)n3nccc3n2)cc1 [Compound 113] | 1 to 500 nM
2 | N[C@H]1CC[C@H](Nc2cc(-c3cccc(F)c3)nc3ccnn23)C1 [Compound 111] | 1 to 500 nM
3 | O=CN[C@@H]1CC[C@@H](Nc2cc(C3CC3)nc3ccnn23)C1 [Compound 51] | 1 to 500 nM
4 | N[C@H]1CC[C@H](Nc2cc(-c3ccc(F)cc3)nc3ccnn23)C1 [Compound 107] | 1 to 500 nM
5 | CC1CCC(c2cc(N[C@H]3CC[C@H](N)C3)n3nccc3n2)CC1 (some centres unmarked) [Compound 122] | 1 to 500 nM
6 | CC(C)c1cc(N[C@@H]2CC[C@@H](N(O)C(N)=O)C2)n2nccc2n1 [Compound 151] | 1 to 500 nM
7 | CN/C(=N/C#N)N[C@@H]1CC[C@@H](Nc2cc(C(C)C)nc3ccnn23)C1 [Compound 154] | 1 to 500 nM
8 | CCC(CC)c1cc(N[C@H]2CC[C@H](NC(=O)c3cnc(C)cn3)C2)n2nccc2n1 [Compound 57] | 1 to 500 nM
9 | N[C@H]1CC[C@H](Nc2cc(-c3ccc4c(c3)OCO4)nc3c(Cl)cnn23)C1 [Compound 104] | 1 to 500 nM
10 | CC(C)Cc1cc(N[C@H]2CC[C@H](N)C2)n2ncc(Cl)c2n1 [Compound 76] | 1 to 500 nM
11 | CCC(C)c1cc(N[C@@H]2CC[C@@H](NC=O)C2)n2nccc2n1 (some centres unmarked) [Compound 143] | 1 to 500 nM
12 | CC(C)c1cc(N[C@H]2CC[C@H](N)C2)n2ncc(C#N)c2n1 [Compound 64] | 1 to 500 nM
13 | N[C@H]1CC[C@H](Nc2cc(C3=CCCOC3)nc3ccnn23)C1 [Compound 112] | 1 to 500 nM
14 | N[C@H]1CC[C@H](Nc2cc(-c3cccc(Cl)c3)nc3ccnn23)C1 [Compound 75] | 1 to 500 nM
15 | O=C(N[C@H]1CC[C@H](Nc2cc(C3CC3)nc3ccnn23)C1)OCc1ccccc1 [Compound 84] | > 1000 nM
16 | COC(=O)N[C@@H]1CC[C@@H](Nc2cc(C(C)C)nc3ccnn23)C1 [Compound 145] | 1 to 500 nM
17 | CCc1cc(N[C@H]2CC[C@H](N)C2)n2nccc2n1 [Compound 47] | 1 to 500 nM
18 | Cc1ncc(-c2cc(N[C@H]3CC[C@H](N)C3)n3nccc3n2)cn1 [Compound 103] | 501 to 1000 nM
19 | CC(C)c1cc(N[C@@H]2CC[C@@H](NC(=O)OCc3ccccc3)C2)n2ncc(Cl)c2n1 [Compound 158] | 1 to 500 nM

Row | Structure (SMILES) | IC50
20 | CCN(CC)c1cc(N[C@H]2CC[C@H](N)C2)n2nccc2n1 [Compound 79] | 1 to 500 nM
21 | CC(C)c1cc(N[C@@H]2CC[C@@H](N(O)C(N)=O)C2)n2nccc2n1 [Compound 60] | 1 to 500 nM
22 | N[C@H]1CC[C@H](Nc2cc(C3CCCCC3)nc3ccnn23)C1 [Compound 115] | 1 to 500 nM
23 | Cc1cc(-c2cc(N[C@H]3CC[C@H](N)C3)n3nccc3n2)ccn1 [Compound 100] | 1 to 500 nM
24 | CC(C)c1cc(N[C@@H]2CC[C@@H](NC(=N)N)C2)n2nccc2n1 [Compound 157] | 1 to 500 nM
25 | CC(C)c1cc(N[C@@H]2CC[C@@H](NC(=O)OCc3ccccc3)C2)n2nccc2n1 [Compound 141] | 1 to 500 nM
26 | Cc1cc(C)cc(-c2cc(N[C@H]3CC[C@H](N)C3)n3nccc3n2)c1 [Compound 105] | 1 to 500 nM
27 | CC(=O)Nc1cc(N[C@@H]2CC[C@@H](N)C2)n2nccc2n1 [Compound 128] | > 1000 nM
28 | CN/C(=N/C#N)N[C@@H]1CC[C@@H](Nc2cc(C(C)C)nc3ccnn23)C1 [Compound 63] | 1 to 500 nM
29 | N[C@H]1CC[C@H](Nc2cc(C3CCOC3)nc3ccnn23)C1 (some centres unmarked) [Compound 124] | 501 to 1000 nM
30 | Cn1ccc(-c2cc(N[C@H]3CC[C@H](N)C3)n3nccc3n2)n1 [Compound 116] | 1 to 500 nM
31 | O=CN[C@@H]1CC[C@@H](Nc2cc(C3CC3)nc3ccnn23)C1 [Compound 142] | 1 to 500 nM
32 | CN1CCN(c2cc(N[C@H]3CC[C@H](N)C3)n3nccc3n2)CC1 [Compound 99] | > 1000 nM
33 | COc1cc(-c2cc(N[C@H]3CC[C@H](N)C3)n3nccc3n2)ccn1 [Compound 101] | 1 to 500 nM
34 | CC(C)c1ccc(-c2cc(N[C@H]3CC[C@H](N)C3)n3nccc3n2)cc1 [Compound 108] | 1 to 500 nM
35 | N[C@@H]1CC[C@@H](Nc2cc(C3CCC3)nc3ccnn23)C1 [Compound 133] | 1 to 500 nM
36 | COCCNc1cc(N[C@H]2CC[C@H](N)C2)n2nccc2n1 [Compound 88] | 501 to 1000 nM
37 | CC(C)OC(=O)N[C@@H]1CC[C@@H](Nc2cc(C(C)C)nc3c(Cl)cnn23)C1 [Compound 68] | 501 to 1000 nM
38 | CC(C)c1cc(N[C@H]2CC[C@H](N)C2)n2ncc(C#N)c2n1 [Compound 155] | 1 to 500 nM

Row | Structure (SMILES) | IC50
39 | N[C@H]1CC[C@H](Nc2cc(-c3ccc(C4CC4)cc3)nc3ccnn23)C1 [Compound 114] | 1 to 500 nM
40 | CC(=O)Nc1cc(N[C@@H]2CC[C@@H](N)C2)n2ncc(Cl)c2n1 [Compound 127] | 1 to 500 nM
41 | CN(CCO)c1cc(N[C@H]2CC[C@H](N)C2)n2nccc2n1 [Compound 90] | 1 to 500 nM
42 | CN(Cc1ccccc1)c1cc(N[C@H]2CC[C@H](N)C2)n2nccc2n1 [Compound 97] | 1 to 500 nM
43 | CC(C)c1cc(N[C@@H]2CC[C@@H](NC=O)C2)n2nccc2n1 [Compound 137] | 1 to 500 nM
44 | N[C@H]1CC[C@H](Nc2cc(Nc3ccc4ccccc4c3)nc3ccnn23)C1 [Compound 71] | 1 to 500 nM
45 | CCC(CC)c1cc(N[C@H]2CC[C@H](Nc3ccccn3)C2)n2nccc2n1 [Compound 149] | 1 to 500 nM
46 | CCOc1cc(N[C@H]2CC[C@H](N)C2)n2nccc2n1 [Compound 91] | 501 to 1000 nM
47 | CC(C)c1cc(N[C@@H]2CC[C@@H](NC=O)C2)n2nccc2n1 [Compound 46] | 1 to 500 nM
48 | COc1cc(N[C@@H]2CC[C@@H](N)C2)n2nccc2n1 [Compound 77] | 501 to 1000 nM
49 | CC(C)c1cc(N[C@@H]2CC[C@@H](N(C)C=O)C2)n2nccc2n1 [Compound 146] | 1 to 500 nM
50 | N[C@H]1CC[C@H](Nc2cc(C3=CCCCC3)nc3ccnn23)C1 [Compound 109] | 1 to 500 nM
51 | CC(C)c1cc(N[C@@H]2CC[C@@H](NC(=O)OCc3ccccc3)C2)n2ncc(Cl)c2n1 [Compound 67] | 1 to 500 nM
52 | N[C@H]1CC[C@H](Nc2cc(Nc3cccc4ccccc34)nc3ccnn23)C1 [Compound 80] | 1 to 500 nM
53 | CC(C)N(C)c1cc(N[C@H]2CC[C@H](N)C2)n2nccc2n1 [Compound 86] | 1 to 500 nM
54 | CCC(CC)c1cc(N[C@H]2CC[C@H](N(C)CCOC)C2)n2nccc2n1 [Compound 153] | 1 to 500 nM
55 | COCCN[C@@H]1CC[C@@H](Nc2cc(C(C)C)nc3ccnn23)C1 [Compound 150] | 1 to 500 nM
56 | COc1cc(C)cc(-c2cc(N[C@H]3CC[C@H](N)C3)n3nccc3n2)c1 [Compound 70] | 1 to 500 nM
57 | CC(C)c1cccc(-c2cc(N[C@H]3CC[C@H](N)C3)n3nccc3n2)c1 [Compound 121] | 1 to 500 nM

Other lines, results leading:

Row | IC50 | Structure (SMILES)
58 | 1 to 500 nM | CC(C)(C#N)c1ccc(-c2cc(N[C@H]3CC[C@H](N)C3)n3nccc3n2)cc1 [Compound 204]
59 | > 1000 nM | CC(C)c1cc(N[C@H]2CC[C@H](N)C2)n2nc(N)cc2n1 [Compound 183]
60 | 1 to 500 nM | N[C@H]1CC[C@H](Nc2cc(-c3cc(Cl)cc(Cl)c3)nc3ccnn23)C1 [Compound 173]
61 | 1 to 500 nM | N[C@H]1CC[C@H](Nc2cc(C3=CCCCC3)nc3ccnn23)C1 [Compound 200]
62 | 501 to 1000 nM | COCCNc1cc(N[C@H]2CC[C@H](N)C2)n2nccc2n1 [Compound 179]
63 | 1 to 500 nM | Cc1cnn2c(N[C@@H]3CC[C@@H](NC(=O)OC(C)C)C3)cc(C(C)C)nc12 [Compound 176]
64 | 1 to 500 nM | Cc1cc(C)cc(-c2cc(N[C@H]3CC[C@H](N)C3)n3nccc3n2)c1 [Compound 196]
65 | 1 to 500 nM | N[C@H]1CC[C@H](Nc2cc(-c3cccc(Cl)c3)nc3ccnn23)C1 [Compound 166]
66 | 1 to 500 nM | CC(C)c1ccc(-c2cc(N[C@H]3CC[C@H](N)C3)n3nccc3n2)cc1 [Compound 199]
67 | 501 to 1000 nM | Cn1cncc1-c1cc(N[C@H]2CC[C@H](NC=O)C2)n2nccc2n1 [Compound 169]
68 | 1 to 500 nM | N[C@H]1CC[C@H](Nc2cc(-c3cccc4ccccc34)nc3ccnn23)C1 [Compound 172]
69 | 1 to 500 nM | COc1cc(Cl)cc(-c2cc(N[C@H]3CC[C@H](N)C3)n3nccc3n2)c1 [Compound 165]
70 | 1 to 500 nM | N[C@H]1CC[C@H](Nc2cc(-c3ccc(C4CC4)cc3)nc3ccnn23)C1 [Compound 205]
71 | 1 to 500 nM | CN(Cc1ccccc1)c1cc(N[C@H]2CC[C@H](N)C2)n2nccc2n1 [Compound 188]
72 | 1 to 500 nM | CCNc1cc(N[C@H]2CC[C@H](N)C2)n2nccc2n1 [Compound 189]
73 | 1 to 500 nM | N[C@H]1CC[C@H](Nc2cc(C3CCCCC3)nc3ccnn23)C1 [Compound 206]
74 | 501 to 1000 nM | CC(C)OC(=O)N[C@@H]1CC[C@@H](Nc2cc(C(C)C)nc3c(Cl)cnn23)C1 [Compound 159]
75 | 501 to 1000 nM | COc1cc(N[C@@H]2CC[C@@H](N)C2)n2nccc2n1 [Compound 168]
76 | 1 to 500 nM | Cc1cccc(-c2cc(N[C@H]3CC[C@H](N)C3)n3nccc3n2)c1 [Compound 164]
77 | 1 to 500 nM | CC(C)N(C)c1cc(N[C@H]2CC[C@H](N)C2)n2nccc2n1 [Compound 177]
78 | > 1000 nM | O=C(N[C@H]1CC[C@H](Nc2cc(C3CC3)nc3ccnn23)C1)OCc1ccccc1 [Compound 175]
79 | 1 to 500 nM | N[C@H]1CC[C@H](Nc2cc(Nc3cccc4ccccc34)nc3ccnn23)C1 [Compound 171]
80 | 1 to 500 nM | N[C@H]1CC[C@H](Nc2cc(-c3ccc4c(c3)OCO4)nc3c(Cl)cnn23)C1 [Compound 195]
81 | 1 to 500 nM | CN(CCO)c1cc(N[C@H]2CC[C@H](N)C2)n2nccc2n1 [Compound 181]
82 | 1 to 500 nM | CCN(CC)c1cc(N[C@H]2CC[C@H](N)C2)n2nccc2n1 [Compound 170]
83 | 501 to 1000 nM | CCOc1cc(N[C@H]2CC[C@H](N)C2)n2nccc2n1 [Compound 182]
